EC50 and IC50 data for twelve molecules are collected here from patent US12304916B2, “Thienopyridinyl and thiazolopyridinyl compounds useful as IRAK4 inhibitors” (BRISTOL-MYERS SQUIBB COMPANY, priority 2019, dated 2025).

In experiment [1] the test system is IL-6 levels in human whole blood stimulated with a TLR2 agonist (lipoteichoic acid). Kind of experiment: IRAK4 Whole Blood Assay. In kind it is cell-based. Particulars: 10 μg/mL lipoteichoic acid for 5 hours, IL-6 readout. The method, then:
Human whole blood containing the anti-coagulant ACD-A was plated in 384-well plate (25 μL/well) and incubated with compounds for 60 minutes at 37° C. in a 5% CO2 incubator. The blood was stimulated with a TLR2 agonist, 10 μg/mL final concentration of lipoteichoic acid (Invivogen, San Diego, CA) in 25 μL RPMI (Gibco) for 5 hours in a 5% CO2 incubator. At the end of the incubation, plates were centrifuged at 2300 rpm for 5 minutes. Supernatants were harvested and analyzed for IL-6 levels by Flow Cytometry beads assay (BD Biosciences, San Jose, CA).

For experiment [2], the target named is IRAK4 (Homo sapiens (Human), UniProt Q9NWZ3). As to the kind of experiment: IRAK4 Inhibition Assay. In kind it is biochemical. Particulars: ATP 500 μM; IRAK4 0.6 nM; 60 min at room temperature. The method, then: The assays were performed in U-bottom 384-well plates. The final assay volume was 30 μL prepared from 15 μL additions of enzyme and substrates (fluoresceinated peptide and ATP) and test compounds in assay buffer (20 mM HEPES pH 7.2, 10 mM MgCl2, 0.015% Brij 35 and 4 mM DTT). The reaction was initiated by the combination of IRAK4 with substrates and test compounds. The reaction mixture was incubated at room temperature for 60 min. and terminated by adding 45 μL of 35 mM EDTA to each sample. The reaction mixture was analyzed on the Caliper LABCHIP® 3000 (Caliper, Hopkinton, MA) by electrophoretic separation of the fluorescent substrate and phosphorylated product. Inhibition data were calculated by comparison to no enzyme control reactions for 100% inhibition and vehicle-only reactions for 0% inhibition. The final concentrations of reagents in the assays are ATP, 500 μM; FL-IPTSPITTTYFFFKKK peptide 1.5 μM; IRAK4, 0.6 nM; and DMSO, 1.6%.
Chain of IRAK4 (Q9NWZ3 whole entry, species assumed): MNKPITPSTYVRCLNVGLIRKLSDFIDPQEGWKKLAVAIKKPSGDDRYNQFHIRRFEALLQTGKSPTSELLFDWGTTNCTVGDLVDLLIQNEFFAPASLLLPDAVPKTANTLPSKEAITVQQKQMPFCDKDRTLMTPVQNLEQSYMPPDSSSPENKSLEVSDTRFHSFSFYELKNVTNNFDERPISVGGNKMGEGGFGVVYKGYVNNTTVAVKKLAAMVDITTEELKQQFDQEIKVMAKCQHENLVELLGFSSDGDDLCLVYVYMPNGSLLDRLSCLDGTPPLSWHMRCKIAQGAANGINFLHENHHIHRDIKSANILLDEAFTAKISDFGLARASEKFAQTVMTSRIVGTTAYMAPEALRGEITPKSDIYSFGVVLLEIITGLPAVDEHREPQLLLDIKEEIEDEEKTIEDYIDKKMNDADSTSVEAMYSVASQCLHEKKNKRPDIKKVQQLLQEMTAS

`CC(C)CCNC(=O)c1cnc2sc(-c3cncs3)cc2c1NC(C)C` [Example 30, N-isopentyl-4-(isopropylamino)-2-(thiazol-5-yl)thieno[2,3-b]pyridine-5-carboxamide] registered an EC50 in experiment [1] greater than 20000 nM. In addition, in experiment [2], the concentration for half-maximal inhibition (IC50) turned out to be 7.5 nM.

In experiment [1], `CC(O)CCNC(=O)c1cnc2sc(-c3cncs3)cc2c1NC(C)C` (stereo not drawn) [Example 60, N-(3-hydroxybutyl)-4-(isopropylamino)-2-(thiazol-5-yl)thieno[2,3-b]pyridine-5-carboxamide] gave an EC50 greater than 10000 nM. Further, the IC50 in experiment [2] worked out at 10.8 nM.

`CC(C)Nc1c(C(=O)NC[C@@H](F)C(C)(C)O)cnc2sc(-c3ccc(C#N)nc3)cc12` [Example 25, (R)-2-(6-cyanopyridin-3-yl)-N-(2-fluoro-3-hydroxy-3-methylbutyl)-4-(isopropylamino) thieno[2,3-b]pyridine-5-carboxamide] yielded a half-maximal effective concentration (EC50) in experiment [1] greater than 20000 nM. Further, in experiment [2], the half-inhibitory concentration (IC50) came out at 18.9 nM.

With `CC(C)Nc1c(C(=O)NCCc2cccnc2)cnc2sc(-c3ccc(=O)[nH]c3)cc12` [Example 72, 4-(isopropylamino)-2-(6-oxo-1,6-dihydropyridin-3-yl)-N-(2-(pyridin-3-yl)ethyl)thieno[2,3-b]pyridine-5-carboxamide], the concentration giving a half-maximal response (EC50) in experiment [1] is greater than 20000 nM. The IC50 in experiment [2] was found to be 6.7 nM.

Turning to `CC(C)Nc1c(C(=O)NC[C@@H](F)C(C)(C)O)cnc2sc(-c3ccc(=O)[nH]c3)cc12` [Example 59, (R)-N-(2-fluoro-3-hydroxy-3-methylbutyl)-4-(isopropylamino)-2-(6-oxo-1,6-dihydropyridin-3-yl)thieno[2,3-b]pyridine-5-carboxamide], in experiment [1], the EC50 amounted to 190 nM. Besides, the IC50 in experiment [2] amounted to 3.8 nM.

In the case of `CC(C)CCNC(=O)c1cnc2sc(-c3ccncc3)cc2c1NC(C)C` [Example 29, N-isopentyl-4-(isopropylamino)-2-(pyridin-4-yl)thieno[2,3-b]pyridine-5-carboxamide], the half-maximal effective concentration (EC50) in experiment [1] is 2400 nM. Besides, the half-maximal inhibitory concentration (IC50) in experiment [2] turned out to be 12.9 nM.

As for `CC(C)Nc1c(C(=O)NCCC2(O)CC(F)(F)C2)cnc2sc(-c3cncs3)cc12` [Example 63, N-(2-(3,3-difluoro-1-hydroxycyclobutyl)ethyl)-4-(isopropylamino)-2-(thiazol-5-yl)thieno[2,3-b]pyridine-5-carboxamide], in experiment [1], the response was half-maximal at 2340 nM (EC50). For the same molecule, the IC50 in experiment [2] is 5.4 nM.

Turning to `CC(C)Nc1c(C(=O)NC[C@@H](F)C(C)(C)O)cnc2sc(-c3cnc(N)s3)cc12` [Example 56, (R)-2-(2-aminothiazol-5-yl)-N-(2-fluoro-3-hydroxy-3-methylbutyl)-4-(isopropylamino)thieno[2,3-b]pyridine-5-carboxamide], the concentration giving a half-maximal response (EC50) in experiment [1] is greater than 10000 nM. In addition, the half-maximal inhibitory concentration (IC50) in experiment [2] stood at 6 nM.

`CC(C)Nc1c(C(=O)N[C@H]2CC[C@H](N)CC2)cnc2sc(-c3cncs3)cc12` [Example 38, N-((1r,4r)-4-aminocyclohexyl)-4-(isopropylamino)-2-(thiazol-5-yl)thieno[2,3-b]pyridine-5-carboxamide]: the 50% effective concentration (EC50) in experiment [1] was found to be 5040 nM. The IC50 in experiment [2] came out at 12.3 nM.

In turn, `CC(C)Nc1c(C(=O)NCCN2CCS(=O)(=O)CC2)cnc2sc(-c3cncs3)cc12` [Example 68, N-(2-(1,1-dioxidothiomorpholino)ethyl)-4-(isopropylamino)-2-(thiazol-5-yl)thieno[2,3-b]pyridine-5-carboxamide] came in with a half-maximal effective concentration (EC50) in experiment [1] greater than 20000 nM. The half-inhibitory concentration (IC50) in experiment [2] was 10.9 nM.

`CC(C)Nc1c(-c2cn(CCCO)nn2)cnc2sc(-c3ccc(=O)[nH]c3)cc12` [Example 80, 5-(5-(1-(3-hydroxypropyl)-1H-1,2,3-triazol-4-yl)-4-(isopropylamino)thieno[2,3-b]pyridin-2-yl) pyridin-2(1H)-one] showed an EC50 in experiment [1] of 420 nM. Besides, the half-inhibitory concentration (IC50) in experiment [2] is 5.2 nM.

`CC(C)Nc1c(C(=O)NC[C@@H](F)C(C)(C)O)cnc2sc(-c3cccc(C#N)c3)cc12` [Example 24, (R)-2-(3-cyanophenyl)-N-(2-fluoro-3-hydroxy-3-methylbutyl)-4-(isopropylamino)thieno[2,3-b]pyridine-5-carboxamide] displayed an EC50 in experiment [1] greater than 20000 nM. Besides, the half-inhibitory concentration (IC50) in experiment [2] came to 16.8 nM.
